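Dose response: 5 concentrations. Exposure: 48 h. Format: 96-well plates. Endpoint: linear interpolation; highest concentration if not reached. At the GI50, growth is halved. At the TGI there is no net growth.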
How the values were obtained:
Assay in all cases: inhibition of tumour cell growth, NCI panel, 48 h
786-0 renal = system: 786-0 renal
A498 renal = system: A498 renal
A549 NSCLC = system: A549 NSCLC
ACHN renal = system: ACHN renal
BT-549 breast = system: BT-549 breast
CAKI-1 renal = system: CAKI-1 renal
CCRF-CEM leukemia = system: CCRF-CEM leukemia
COLO 205 colon = system: COLO 205 colon
DLD-1 colon = system: DLD-1 colon
DU-145 prostate = system: DU-145 prostate
EKVX NSCLC = system: EKVX NSCLC
HCC-2998 colon = system: HCC-2998 colon
HCT-116 colon = system: HCT-116 colon
HCT-15 colon = system: HCT-15 colon
HL-60(TB) leukemia = system: HL-60(TB) leukemia
HOP-18 NSCLC = system: HOP-18 NSCLC
HOP-62 NSCLC = system: HOP-62 NSCLC
HS 578T breast = system: HS 578T breast
HT29 colon = system: HT29 colon
IGROV1 ovarian = system: IGROV1 ovarian
K-562 leukemia = system: K-562 leukemia
KM20L2 colon = system: KM20L2 colon
LOX IMVI melanoma = system: LOX IMVI melanoma
LXFL 529 NSCLC = system: LXFL 529 NSCLC
M14 melanoma = system: M14 melanoma
M19-MEL melanoma = system: M19-MEL melanoma
MALME-3M melanoma = system: MALME-3M melanoma
MCF7 breast = system: MCF7 breast
MDA-MB-435 = system: MDA-MB-435
MDA-N = system: MDA-N
MOLT-4 leukemia = system: MOLT-4 leukemia
NCI-H226 lung = system: NCI-H226 lung
NCI-H23 lung = system: NCI-H23 lung
NCI-H460 lung = system: NCI-H460 lung
NCI-H522 lung = system: NCI-H522 lung
NCI/ADR-RES ovarian = system: NCI/ADR-RES ovarian
OVCAR-3 ovarian = system: OVCAR-3 ovarian
OVCAR-4 ovarian = system: OVCAR-4 ovarian
OVCAR-5 ovarian = system: OVCAR-5 ovarian
OVCAR-8 ovarian = system: OVCAR-8 ovarian
PC-3 prostate = system: PC-3 prostate
RPMI-8226 leukemia = system: RPMI-8226 leukemia
RXF 393 renal = system: RXF 393 renal
RXF-631 renal = system: RXF-631 renal
SF-268 CNS = system: SF-268 CNS
SF-295 CNS = system: SF-295 CNS
SF-539 CNS = system: SF-539 CNS
SK-MEL-2 melanoma = system: SK-MEL-2 melanoma
SK-MEL-28 melanoma = system: SK-MEL-28 melanoma
SK-MEL-5 melanoma = system: SK-MEL-5 melanoma
SK-OV-3 ovarian = system: SK-OV-3 ovarian
SN12C renal = system: SN12C renal
SNB-19 CNS = system: SNB-19 CNS
SNB-75 CNS = system: SNB-75 CNS
SNB-78 CNS = system: SNB-78 CNS
SR leukemia = system: SR leukemia
SW-620 colon = system: SW-620 colon
T-47D breast = system: T-47D breast
TK-10 renal = system: TK-10 renal
U251 CNS = system: U251 CNS
UACC-257 melanoma = system: UACC-257 melanoma
UACC-62 melanoma = system: UACC-62 melanoma
UO-31 renal = system: UO-31 renal
XF 498 CNS = system: XF 498 CNS
DMS 114 small cell lung = system: DMS 114 small cell lung
HOP-92 NSCLC = system: HOP-92 NSCLC

**Q.** What does the source list for COC1/C=C\C=C(/C)C(=O)NC2=CC(=O)C(N)=C(CC(C)CC(OC)C(O)C(C)C=C(C)C1OC(N)=O)C2=O (stereo not drawn)?
**A.** TGI (786-0 renal): > 100 µM; TGI (A498 renal): > 96.4 µM; TGI (A549 NSCLC): 40.9 µM; TGI (ACHN renal): 83.5 µM; GI50 (BT-549 breast): 0.0806 µM; TGI (BT-549 breast): > 45.2 µM; TGI (CAKI-1 renal): > 89.8 µM; TGI (CCRF-CEM leukemia): 35.8 µM; GI50 (COLO 205 colon): 0.0614 µM; TGI (COLO 205 colon): 0.0507 µM; TGI (DLD-1 colon): 17.7 µM; GI50 (DU-145 prostate): 0.067 µM; TGI (DU-145 prostate): 31.7 µM; TGI (EKVX NSCLC): 63 µM; TGI (HCC-2998 colon): 1.74 µM; TGI (HCT-116 colon): 25.3 µM; TGI (HCT-15 colon): 31.5 µM; TGI (HL-60(TB) leukemia): 19.3 µM; TGI (HOP-18 NSCLC): 32.4 µM; TGI (HOP-62 NSCLC): > 78 µM; TGI (HS 578T breast): 59.4 µM; GI50 (HT29 colon): 0.0337 µM; TGI (HT29 colon): > 63.7 µM; TGI (IGROV1 ovarian): 25.9 µM; GI50 (K-562 leukemia): 0.0982 µM; TGI (K-562 leukemia): > 69.6 µM; TGI (KM20L2 colon): 0.0192 µM; GI50 (LOX IMVI melanoma): 0.0761 µM; TGI (LOX IMVI melanoma): 1.55 µM; TGI (LXFL 529 NSCLC): > 100 µM; GI50 (M14 melanoma): 0.0379 µM; TGI (M14 melanoma): 33.4 µM; TGI (M19-MEL melanoma): 12.5 µM; TGI (MALME-3M melanoma): 15.4 µM; TGI (MCF7 breast): 37.6 µM; GI50 (MDA-MB-435): 0.051 µM; TGI (MDA-MB-435): 14.9 µM; GI50 (MDA-N): 0.0829 µM; TGI (MDA-N): 12.6 µM; TGI (MOLT-4 leukemia): 48.7 µM; TGI (NCI-H226 lung): > 100 µM; GI50 (NCI-H23 lung): 0.0375 µM; TGI (NCI-H23 lung): 21.5 µM; GI50 (NCI-H460 lung): 0.0459 µM; TGI (NCI-H460 lung): > 54.7 µM; TGI (NCI-H522 lung): 0.392 µM; TGI (NCI/ADR-RES ovarian): > 100 µM; TGI (OVCAR-3 ovarian): 20.2 µM; TGI (OVCAR-4 ovarian): 36.9 µM; TGI (OVCAR-5 ovarian): 39.7 µM; TGI (OVCAR-8 ovarian): 33.9 µM; TGI (PC-3 prostate): > 75.7 µM; TGI (RPMI-8226 leukemia): 65.4 µM; TGI (RXF 393 renal): > 94.7 µM; TGI (RXF-631 renal): > 100 µM; TGI (SF-268 CNS): 68.6 µM; TGI (SF-295 CNS): > 62.2 µM; GI50 (SF-539 CNS): 0.0397 µM; TGI (SF-539 CNS): > 44.4 µM; TGI (SK-MEL-2 melanoma): 14.9 µM; GI50 (SK-MEL-28 melanoma): 0.0513 µM; TGI (SK-MEL-28 melanoma): > 73.8 µM; TGI (SK-MEL-5 melanoma): 15.8 µM; GI50 (SK-OV-3 ovarian): 0.0822 µM; TGI (SK-OV-3 ovarian): > 100 µM; TGI (SN12C renal): 29 µM; TGI (SNB-19 CNS): 93.7 µM; TGI (SNB-75 CNS): 11.3 µM; TGI (SNB-78 CNS): 91.1 µM; GI50 (SR leukemia): < 0.01 µM; TGI (SR leukemia): 1.64 µM; GI50 (SW-620 colon): 0.0468 µM; TGI (SW-620 colon): 17.4 µM; TGI (T-47D breast): 33.7 µM; TGI (TK-10 renal): > 77.2 µM; GI50 (U251 CNS): 0.0822 µM; TGI (U251 CNS): > 48.9 µM; TGI (UACC-257 melanoma): 14.5 µM; GI50 (UACC-62 melanoma): 0.0322 µM; TGI (UACC-62 melanoma): 18.4 µM; TGI (UO-31 renal): 40.4 µM; TGI (XF 498 CNS): 24.8 µM

**Q.** For Cc1nc2ccccn2c1N=Nc1ccc(C(=O)NN)cc1, which TGI (786-0 renal) is on record?
**A.** > 100 µM

**Q.** What about the TGI (A498 renal) of the same compound?
**A.** > 100 µM

**Q.** And the TGI (A549 NSCLC)?
**A.** > 100 µM

**Q.** What about the TGI (ACHN renal) of the same compound?
**A.** > 100 µM

**Q.** What about the TGI (CAKI-1 renal) of the same compound?
**A.** > 100 µM

**Q.** And the TGI (CCRF-CEM leukemia)?
**A.** 30.6 µM

**Q.** And the TGI (COLO 205 colon)?
**A.** > 100 µM

**Q.** What about the TGI (DLD-1 colon) of the same compound?
**A.** > 100 µM

**Q.** What about the TGI (DMS 114 small cell lung) of the same compound?
**A.** > 100 µM

**Q.** What about the TGI (EKVX NSCLC) of the same compound?
**A.** > 100 µM

**Q.** And the TGI (HCC-2998 colon)?
**A.** > 100 µM

**Q.** And the TGI (HCT-15 colon)?
**A.** > 100 µM

**Q.** And the TGI (HL-60(TB) leukemia)?
**A.** > 100 µM

**Q.** What about the TGI (HOP-18 NSCLC) of the same compound?
**A.** > 100 µM

**Q.** What about the TGI (HOP-62 NSCLC) of the same compound?
**A.** > 100 µM

**Q.** What about the TGI (HOP-92 NSCLC) of the same compound?
**A.** > 100 µM

**Q.** What about the TGI (HT29 colon) of the same compound?
**A.** > 100 µM

**Q.** And the TGI (IGROV1 ovarian)?
**A.** 89.7 µM

**Q.** What about the TGI (K-562 leukemia) of the same compound?
**A.** > 100 µM

**Q.** What about the TGI (KM20L2 colon) of the same compound?
**A.** > 100 µM

**Q.** And the TGI (LOX IMVI melanoma)?
**A.** > 100 µM

**Q.** And the TGI (LXFL 529 NSCLC)?
**A.** > 100 µM

**Q.** And the TGI (M14 melanoma)?
**A.** > 100 µM

**Q.** And the TGI (M19-MEL melanoma)?
**A.** > 100 µM

**Q.** What about the TGI (MALME-3M melanoma) of the same compound?
**A.** > 100 µM

**Q.** What about the TGI (MOLT-4 leukemia) of the same compound?
**A.** 40.8 µM

**Q.** And the TGI (NCI-H226 lung)?
**A.** > 100 µM

**Q.** What about the TGI (NCI-H23 lung) of the same compound?
**A.** > 100 µM

**Q.** And the TGI (OVCAR-3 ovarian)?
**A.** > 100 µM

**Q.** And the TGI (OVCAR-4 ovarian)?
**A.** > 100 µM

**Q.** What about the TGI (OVCAR-5 ovarian) of the same compound?
**A.** > 100 µM

**Q.** What about the TGI (OVCAR-8 ovarian) of the same compound?
**A.** > 100 µM

**Q.** And the TGI (RPMI-8226 leukemia)?
**A.** > 100 µM

**Q.** And the TGI (RXF 393 renal)?
**A.** 60.1 µM

**Q.** What about the TGI (RXF-631 renal) of the same compound?
**A.** > 100 µM

**Q.** And the TGI (SF-268 CNS)?
**A.** > 100 µM

**Q.** What about the TGI (SF-295 CNS) of the same compound?
**A.** > 100 µM

**Q.** What about the TGI (SF-539 CNS) of the same compound?
**A.** > 100 µM

**Q.** And the TGI (SK-MEL-28 melanoma)?
**A.** > 100 µM

**Q.** What about the TGI (SK-MEL-5 melanoma) of the same compound?
**A.** 69.1 µM

**Q.** What about the TGI (SK-OV-3 ovarian) of the same compound?
**A.** > 100 µM

**Q.** And the TGI (SN12C renal)?
**A.** > 100 µM

**Q.** What about the TGI (SNB-19 CNS) of the same compound?
**A.** > 100 µM

**Q.** And the TGI (SNB-78 CNS)?
**A.** > 100 µM

**Q.** And the TGI (SW-620 colon)?
**A.** > 100 µM

**Q.** And the TGI (TK-10 renal)?
**A.** > 100 µM

**Q.** What about the TGI (U251 CNS) of the same compound?
**A.** > 100 µM

**Q.** And the TGI (UACC-257 melanoma)?
**A.** > 100 µM

**Q.** What about the TGI (UACC-62 melanoma) of the same compound?
**A.** > 100 µM

**Q.** And the TGI (UO-31 renal)?
**A.** > 100 µM

**Q.** What about the TGI (XF 498 CNS) of the same compound?
**A.** > 100 µM
